{"source": "the NIST ThermoML archive (doi:10.1016/j.jct.2013.09.005)", "key": {"[1]": {"details": "303.15 K, 101.33 kPa, Liquid; for viscosity: Capillary tube (Ostwald / Ubbelohde) method; for speed of sound: Linear variable-path acoustic interferometer; for mass density: Pycnometric method"}, "[2]": {"assay": "xn = mol fraction of the nth substance listed", "details": "303.15 K, 101 kPa, Liquid, x1 = 0.5; for viscosity: Capillary tube (Ostwald / Ubbelohde) method; for speed of sound: Frequency=2 MHz; for mass density: Pycnometric method"}}, "note": "± gives the expanded uncertainty stated by the source.", "data": [{"smiles": "CCCCO", "note": "[butan-1-ol]", "values": [{"measurement": "viscosity", "setting": "[1]", "value": "2.054 ± 0.21", "unit": "mPa·s"}, {"measurement": "speed of sound", "setting": "[1]", "value": "1228.4 ± 1.9", "unit": "m/s"}, {"measurement": "mass density", "setting": "[1]", "value": "804 ± 4", "unit": "kg/m3"}]}, {"smiles": "CCOC(=O)c1ccccc1", "note": "[ethyl benzoate] + CCCO", "values": [{"measurement": "viscosity", "setting": "[2]", "value": "1.679 ± 0.17", "unit": "mPa·s"}, {"measurement": "speed of sound", "setting": "[2]; variable-path interferometer", "value": "1261.4 ± 1.9", "unit": "m/s"}, {"measurement": "mass density", "setting": "[2]", "value": "918.5 ± 4", "unit": "kg/m3"}]}, {"smiles": "CCCCCO", "note": "[pentan-1-ol]", "values": [{"measurement": "viscosity", "setting": "[1]", "value": "3.012 ± 0.3", "unit": "mPa·s"}, {"measurement": "speed of sound", "setting": "[1]", "value": "1252.4 ± 1.9", "unit": "m/s"}, {"measurement": "mass density", "setting": "[1]", "value": "810 ± 4", "unit": "kg/m3"}]}, {"smiles": "COC(=O)c1ccccc1", "note": "[methyl benzoate]", "values": [{"measurement": "viscosity", "setting": "[1]", "value": "1.67 ± 0.17", "unit": "mPa·s"}, {"measurement": "speed of sound", "setting": "[1]", "value": "1399.4 ± 2", "unit": "m/s"}, {"measurement": "mass density", "setting": "[1]", "value": "1077 ± 4", "unit": "kg/m3"}]}, {"smiles": "CCOC(=O)c1ccccc1", "note": "[ethyl benzoate]", "values": [{"measurement": "viscosity", "setting": "[1]", "value": "1.749 ± 0.17", "unit": "mPa·s"}, {"measurement": "speed of sound", "setting": "[1]", "value": "1345.4 ± 2", "unit": "m/s"}, {"measurement": "mass density", "setting": "[1]", "value": "1042 ± 4", "unit": "kg/m3"}]}, {"smiles": "CCCO", "note": "[propan-1-ol]", "values": [{"measurement": "viscosity", "setting": "[1]", "value": "1.61 ± 0.16", "unit": "mPa·s"}, {"measurement": "speed of sound", "setting": "[1]", "value": "1189.2 ± 1.9", "unit": "m/s"}, {"measurement": "mass density", "setting": "[1]", "value": "798 ± 4", "unit": "kg/m3"}]}, {"smiles": "COC(=O)c1ccccc1", "note": "[methyl benzoate] + CCCO", "values": [{"measurement": "viscosity", "setting": "[2]", "value": "1.634 ± 0.16", "unit": "mPa·s"}, {"measurement": "speed of sound", "setting": "[2]; Linear variable-path acoustic interferometer", "value": "1296.6 ± 1.9", "unit": "m/s"}, {"measurement": "mass density", "setting": "[2]", "value": "944.5 ± 4", "unit": "kg/m3"}]}]}
